PubChem BioAssay (NCI)
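The concentration for 50% growth inhibition is given as GI50. Definition used: TGI = concentration required for complete inhibition of growth.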

Columns and labels:
Assay in all cases: NCI tumour cell line growth inhibition, 384-well format
SK-MEL-28 melanoma = system: SK-MEL-28 melanoma
IGROV1 ovarian = system: IGROV1 ovarian
MDA-MB-231 breast = system: MDA-MB-231 breast
MALME-3M melanoma = system: MALME-3M melanoma
786-0 renal = system: 786-0 renal
M14 melanoma = system: M14 melanoma
BT-549 breast = system: BT-549 breast
NCI/ADR-RES ovarian = system: NCI/ADR-RES ovarian
T-47D breast = system: T-47D breast
COLO 205 colon = system: COLO 205 colon
NCI-H522 lung = system: NCI-H522 lung
OVCAR-4 ovarian = system: OVCAR-4 ovarian
HOP-92 NSCLC = system: HOP-92 NSCLC
OVCAR-8 ovarian = system: OVCAR-8 ovarian
HL-60(TB) leukemia = system: HL-60(TB) leukemia
HOP-62 NSCLC = system: HOP-62 NSCLC
HCT-116 colon = system: HCT-116 colon
NCI-H322M lung = system: NCI-H322M lung
MDA-MB-435 melanoma = system: MDA-MB-435 melanoma
K-562 leukemia = system: K-562 leukemia
SF-268 CNS = system: SF-268 CNS
DU-145 prostate = system: DU-145 prostate
SK-MEL-2 melanoma = system: SK-MEL-2 melanoma
EKVX NSCLC = system: EKVX NSCLC
SNB-19 CNS = system: SNB-19 CNS
UO-31 renal = system: UO-31 renal
KM12 colon = system: KM12 colon
LOX IMVI melanoma = system: LOX IMVI melanoma
MDA-MB-468 breast = system: MDA-MB-468 breast
OVCAR-3 ovarian = system: OVCAR-3 ovarian
HT29 colon = system: HT29 colon
SF-539 CNS = system: SF-539 CNS
NCI-H23 lung = system: NCI-H23 lung
PC-3 prostate = system: PC-3 prostate
SW-620 colon = system: SW-620 colon
MCF7 breast = system: MCF7 breast
SR leukemia = system: SR leukemia
SN12C renal = system: SN12C renal
CAKI-1 renal = system: CAKI-1 renal
NCI-H226 lung = system: NCI-H226 lung
SNB-75 CNS = system: SNB-75 CNS
UACC-62 melanoma = system: UACC-62 melanoma
UACC-257 melanoma = system: UACC-257 melanoma
HCT-15 colon = system: HCT-15 colon
OVCAR-5 ovarian = system: OVCAR-5 ovarian
SK-OV-3 ovarian = system: SK-OV-3 ovarian
NCI-H460 NSCLC = system: NCI-H460 NSCLC
HS 578T breast = system: HS 578T breast
A498 renal = system: A498 renal
RXF 393 renal = system: RXF 393 renal
RPMI-8226 leukemia = system: RPMI-8226 leukemia
HCC-2998 colon = system: HCC-2998 colon
SF-295 CNS = system: SF-295 CNS
TK-10 renal = system: TK-10 renal
U251 glioblastoma = system: U251 glioblastoma
SK-MEL-5 melanoma = system: SK-MEL-5 melanoma
MOLT-4 leukemia = system: MOLT-4 leukemia
CCRF-CEM leukemia = system: CCRF-CEM leukemia
A549 NSCLC = system: A549 NSCLC

CCN1CCC(Oc2c(C#N)ncc3[nH]c4ncccc4c23)CC1
GI50 (SK-MEL-28 melanoma): > 100000 nM | TGI (SK-MEL-28 melanoma): > 100000 nM | GI50 (IGROV1 ovarian): 1630 nM | TGI (IGROV1 ovarian): > 100000 nM | GI50 (MDA-MB-231 breast): 26300 nM | TGI (MDA-MB-231 breast): 69800 nM | GI50 (MALME-3M melanoma): 9760 nM | TGI (MALME-3M melanoma): > 100000 nM | GI50 ([…]-0 renal): 2520 nM | TGI (786-0 renal): > 100000 nM | GI50 (M14 melanoma): 398 nM | TGI (M14 melanoma): 1650 nM | GI50 (BT-549 breast): 147 nM | TGI (BT-549 breast): 426 nM | GI50 (NCI/ADR-RES ovarian): 130 nM | TGI (NCI/ADR-RES ovarian): 438 nM | GI50 (T-47D breast): > 100000 nM | TGI (T-47D breast): > 100000 nM | GI50 (COLO 205 colon): 2520 nM | TGI (COLO 205 colon): 5810 nM | GI50 (NCI-H522 lung): 3190 nM | TGI (NCI-H522 lung): > 100000 nM | GI50 (OVCAR-4 ovarian): > 100000 nM | TGI (OVCAR-4 ovarian): > 100000 nM | GI50 (HOP-92 NSCLC): 183 nM | GI50 (OVCAR-8 ovarian): 1010 nM | TGI (OVCAR-8 ovarian): > 100000 nM | GI50 (HL-60(TB) leukemia): 548 nM | TGI (HL-60(TB) leukemia): 1040 nM | GI50 (HOP-62 NSCLC): 311 nM | TGI (HOP-62 NSCLC): 2060 nM | GI50 (HCT-116 colon): 1270 nM | TGI (HCT-116 colon): 2850 nM | GI50 (NCI-H322M lung): 449 nM | TGI (NCI-H322M lung): > 100000 nM | GI50 (MDA-MB-435 melanoma): 520 nM | TGI (MDA-MB-435 melanoma): 1760 nM | GI50 (K-562 leukemia): 253 nM | TGI (K-562 leukemia): 694 nM | GI50 (SF-268 CNS): 3500 nM | TGI (SF-268 CNS): 14800 nM | GI50 (DU-145 prostate): 5900 nM | TGI (DU-145 prostate): > 100000 nM | GI50 (SK-MEL-2 melanoma): 1170 nM | TGI (SK-MEL-2 melanoma): 4470 nM | GI50 (EKVX NSCLC): > 100000 nM | TGI (EKVX NSCLC): > 100000 nM | GI50 (SNB-19 CNS): 4560 nM | TGI (SNB-19 CNS): > 100000 nM | GI50 (UO-31 renal): 221 nM | TGI (UO-31 renal): 1650 nM | GI50 (KM12 colon): 640 nM | TGI (KM12 colon): 3900 nM | GI50 (LOX IMVI melanoma): 1670 nM | TGI (LOX IMVI melanoma): > 100000 nM | TGI (MDA-MB-468 breast): > 22500 nM | GI50 (OVCAR-3 ovarian): 501 nM | TGI (OVCAR-3 ovarian): 1180 nM | GI50 (HT29 colon): 5960 nM | TGI (HT29 colon): > 100000 nM | GI50 (SF-539 CNS): 85.8 nM | TGI (SF-539 CNS): 273 nM | GI50 (NCI-H23 lung): 423 nM | TGI (NCI-H23 lung): 18400 nM | GI50 (PC-3 prostate): 4790 nM | TGI (PC-3 prostate): > 90200 nM | GI50 (SW-620 colon): 2300 nM | TGI (SW-620 colon): 5540 nM | GI50 (MCF7 breast): 317 nM | TGI (MCF7 breast): > 100000 nM | GI50 (SR leukemia): < 39.6 nM | TGI (SR leukemia): 92.8 nM | GI50 (SN12C renal): 3250 nM | TGI (SN12C renal): > 52100 nM | GI50 (CAKI-1 renal): 3400 nM | TGI (CAKI-1 renal): > 100000 nM | GI50 (NCI-H226 lung): > 23500 nM | TGI (NCI-H226 lung): > 100000 nM | GI50 (SNB-75 CNS): 7160 nM | TGI (SNB-75 CNS): > 57800 nM | GI50 (UACC-62 melanoma): 5290 nM | TGI (UACC-62 melanoma): 27500 nM | GI50 (UACC-257 melanoma): > 100000 nM | TGI (UACC-257 melanoma): > 100000 nM | GI50 (HCT-15 colon): 2260 nM | TGI (HCT-15 colon): > 88100 nM | GI50 (OVCAR-5 ovarian): 2650 nM | TGI (OVCAR-5 ovarian): > 100000 nM | GI50 (SK-OV-3 ovarian): 578 nM | TGI (SK-OV-3 ovarian): > 24000 nM | GI50 (NCI-H460 NSCLC): 997 nM | TGI (NCI-H460 NSCLC): 3940 nM | GI50 (HS 578T breast): 199 nM | TGI (HS 578T breast): 1400 nM | GI50 (A498 renal): < 45.6 nM | TGI (A498 renal): 133 nM | GI50 (RXF 393 renal): 51.5 nM | TGI (RXF 393 renal): 211 nM | GI50 (RPMI-8226 leukemia): 720 nM | TGI (RPMI-8226 leukemia): 1970 nM | GI50 (HCC-2998 colon): 93.3 nM | TGI (HCC-2998 colon): 410 nM | GI50 (SF-295 CNS): 120 nM | TGI (SF-295 CNS): 619 nM | GI50 (TK-10 renal): 329 nM | GI50 (U251 glioblastoma): 1590 nM | TGI (U251 glioblastoma): > 100000 nM | GI50 (SK-MEL-5 melanoma): 2610 nM | TGI (SK-MEL-5 melanoma): > 100000 nM | GI50 (MOLT-4 leukemia): 172 nM | TGI (MOLT-4 leukemia): 327 nM | GI50 (CCRF-CEM leukemia): 182 nM | TGI (CCRF-CEM leukemia): 356 nM | GI50 (A549 NSCLC): > 100000 nM | TGI (A549 NSCLC): > 100000 nM
